Results published in the NIST ThermoML archive (doi:10.1016/j.jct.2016.10.009).

Assay: xn = mol fraction of the nth substance listed
Conditions: Liquid, Vibrating tube method

CC(C)OC(C)C [diisopropyl ether] + CCC(C)O
mass density [kg/m3]
Conditions	x2 = 0	x2 = 0.2036	x2 = 0.3227	x2 = 0.4464	x2 = 0.4973	x2 = 0.6595	x2 = 0.8482
333.15 K, 45000 kPa	–	–	–	761.8	765.4	777.4	793.2
333.15 K, 50000 kPa	739.1	750.4	757.8	765.7	769.2	781.1	796.6
333.15 K, 55000 kPa	743.1	754.3	761.6	769.4	772.9	784.5	799.8
333.15 K, 60000 kPa	747.1	758	765.2	772.9	776.4	787.9	803
333.15 K, 65000 kPa	750.9	761.7	768.8	776.4	779.8	791.2	806
333.15 K, 70000 kPa	754.4	765.1	772.1	779.7	783.1	794.3	808.9
333.15 K, 80000 kPa	761.3	771.8	778.6	785.9	789.2	800.2	814.6
333.15 K, 90000 kPa	767.7	778	784.7	791.9	795.1	805.9	820
333.15 K, 100000 kPa	773.7	783.7	790.3	797.4	800.5	811.1	824.9
333.15 K, 110000 kPa	779.4	789.3	795.8	802.7	805.9	816.1	829.8
333.15 K, 120000 kPa	784.7	794.5	800.9	807.7	810.8	820.9	834.3
333.15 K, 130000 kPa	789.9	799.5	805.9	812.5	815.6	825.6	838.8
333.15 K, 140000 kPa	794.8	804.2	810.4	817	820	830	842.9
353.19 K, 100 kPa	–	672.3	682	692.5	–	712.8	732.9
353.19 K, 1000 kPa	659.5	674.1	683.6	694.1	698.7	714.2	734.2
353.19 K, 5000 kPa	667.6	681.5	690.7	700.7	705.1	720	739.3
353.19 K, 10000 kPa	676.5	689.7	698.5	708	712.3	726.7	745.2
353.19 K, 15000 kPa	684.4	697.1	705.5	714.7	718.9	732.8	750.7
353.19 K, 20000 kPa	691.5	703.8	711.9	720.9	724.9	738.3	755.8
353.19 K, 25000 kPa	698	709.9	717.9	726.6	730.4	743.5	760.6
353.19 K, 30000 kPa	704	715.7	723.4	731.9	735.7	748.5	765.1
353.19 K, 35000 kPa	709.7	721	728.6	736.8	740.6	753.1	769.3
353.19 K, 40000 kPa	714.8	725.9	733.3	741.5	745.1	757.3	773.4
353.19 K, 45000 kPa	719.7	730.8	738	745.9	749.5	761.5	777.3
353.19 K, 50000 kPa	724.6	735.3	742.4	750.3	753.8	765.6	781
353.19 K, 55000 kPa	728.9	739.4	746.5	754.3	757.7	769.4	784.5
353.19 K, 60000 kPa	733.2	743.6	750.5	758.1	761.6	773	788
353.19 K, 65000 kPa	737.2	747.6	754.3	761.9	765.2	776.6	791.3
353.19 K, 70000 kPa	741.1	751.3	758	765.5	768.8	780	794.6
353.19 K, 80000 kPa	748.4	758.3	765	772.2	775.4	786.3	800.5
353.19 K, 90000 kPa	755.4	765.1	771.5	778.6	781.8	792.4	806.4
353.19 K, 100000 kPa	761.6	771.2	777.6	784.5	787.6	798	811.8
353.19 K, 110000 kPa	767.8	777.1	783.4	790.2	793.3	803.5	816.9
353.19 K, 120000 kPa	773.4	782.6	788.8	795.5	798.5	808.6	821.8
353.19 K, 130000 kPa	778.8	787.8	793.9	800.6	803.5	813.4	826.5
353.19 K, 140000 kPa	784	792.9	798.9	805.4	808.4	818.2	831
373.24 K, 1000 kPa	635.6	649.8	659.4	670	674.8	690.8	711.2
373.24 K, 5000 kPa	645.5	659	668	678.1	682.5	697.8	717.4
373.24 K, 10000 kPa	656.1	668.7	677.2	686.9	691.1	705.6	724.3
373.24 K, 15000 kPa	665.3	677.4	685.5	694.7	698.8	712.7	730.7
373.24 K, 20000 kPa	673.5	685.1	693	701.7	705.7	719.1	736.5
373.24 K, 25000 kPa	680.8	692.1	699.7	708.2	712	725.1	741.9
373.24 K, 30000 kPa	687.6	698.6	706	714.3	718	730.6	747.1
373.24 K, 35000 kPa	693.8	704.4	711.7	719.8	723.4	735.7	751.9
373.24 K, 40000 kPa	699.6	710	717.1	725	728.5	740.7	756.3
373.24 K, 45000 kPa	705	715.3	722.2	730	733.5	745.3	760.7
373.24 K, 50000 kPa	710.1	720.1	726.9	734.6	738	749.6	764.7
373.24 K, 55000 kPa	714.9	724.9	731.5	739	742.4	753.8	768.7
373.24 K, 60000 kPa	719.5	729.2	735.8	743.2	746.5	757.8	772.4
373.24 K, 65000 kPa	723.9	733.4	740	747.3	750.6	761.6	776
373.24 K, 70000 kPa	728.1	737.4	743.9	751.1	754.3	765.2	779.5
373.24 K, 80000 kPa	735.9	745.2	751.5	758.4	761.6	772.3	786.1
373.24 K, 90000 kPa	743.2	752.3	758.4	765.2	768.4	778.8	792.3
373.24 K, 100000 kPa	750	758.8	764.9	771.5	774.6	784.8	798.2
373.24 K, 110000 kPa	756.3	765.1	771	777.6	780.6	790.6	803.6
373.24 K, 120000 kPa	762.3	770.9	776.8	783.2	786.1	796	808.8
373.24 K, 130000 kPa	768	776.5	782.3	788.7	791.5	801.3	813.9
373.24 K, 140000 kPa	773.3	781.8	787.4	793.7	796.6	806.1	818.6
393.28 K, 1000 kPa	609.5	623.6	633.2	644	648.8	665	686.4
393.28 K, 5000 kPa	622.1	635	643.9	654	658.4	673.7	693.9
393.28 K, 10000 kPa	635	647	655.3	664.6	668.8	683.2	702.2
393.28 K, 15000 kPa	645.8	657.1	665	673.9	677.9	691.5	709.7
393.28 K, 20000 kPa	655.2	666	673.6	682	685.8	698.9	716.3
393.28 K, 25000 kPa	663.5	674	681.2	689.5	693.1	705.7	722.6
393.28 K, 30000 kPa	671.1	681.1	688.2	696.2	699.8	712	728.4
393.28 K, 35000 kPa	677.9	687.8	694.7	702.5	705.9	717.8	733.8
393.28 K, 40000 kPa	684.3	694	700.7	708.3	711.6	723.2	738.8
393.28 K, 45000 kPa	690.2	699.6	706.2	713.7	717	728.3	743.6
393.28 K, 50000 kPa	695.8	705.1	711.5	718.8	722	733.1	748.1
393.28 K, 55000 kPa	701.1	710.3	716.6	723.7	726.9	737.8	752.5
393.28 K, 60000 kPa	705.9	714.9	721.1	728.2	731.3	742.1	756.5
393.28 K, 65000 kPa	710.6	719.4	725.7	732.5	735.6	746.3	760.4
393.28 K, 70000 kPa	715.2	723.9	729.9	736.8	739.9	750.3	764.3
393.28 K, 80000 kPa	723.5	732	738	744.7	747.6	757.7	771.4
393.28 K, 90000 kPa	731.3	739.7	745.5	752	754.9	764.8	778.1
393.28 K, 100000 kPa	738.4	746.7	752.4	758.7	761.6	771.3	784.3
393.28 K, 110000 kPa	745.3	753.3	758.9	765.2	768	777.5	790.3
393.28 K, 120000 kPa	751.4	759.4	764.9	771.1	773.8	783.2	795.8
393.28 K, 130000 kPa	757.4	765.3	770.8	776.8	779.6	788.8	801.1
393.28 K, 140000 kPa	763.1	770.8	776.3	782.3	784.9	794.1	806.2
